Results published in patent EP4129284B1, “SERTACONAZOL FOR PROVIDING A SPORISTATIC AND/OR SPORICIDAL EFFECT” (Dr. Pfleger Arzneimittel GmbH, priority 2021, dated 2023).

Test system: full skin models
Assay type: cell-based, human
Details: for cell viability: human
Method: Additionally, the influence on the cell viability and the release of lactate dehydrogenase (LDH) was examined over the incubation time. Disruptions of the cell membranes can be measured by the release of the cytosolic enzyme LDH and be evaluated as a marker for cellular necrosis. As the biocompatibility of the material is determined by further cellular and molecular factors, the analysis of the cellular interleukin release allows the conclusion on e.g. pro-inflammatory effects of the substances, which would not be possible to be detected by sole cytotoxicity. Such interleukins are interleukins 1α, 6 or 8, which are involved in coordinating the cellular proliferation, cell migration and possible inflammatory processes. Such a method is described in, for example, Wiegand C, Hipler UC. Evaluation of biocompatibility and cytotoxicity using keratinocyte and fibroblast cultures. Skin Pharmacol Physiol 2009; 22:74-82; Wiegand C, Winter D, Hipler UC. Molecular-weight-dependent toxic effects of chitosans on the human keratinocyte cell line HaCaT. Skin Pharmacol Physiol. 2010;23(3):164-70.
The spore suspensions and the solutions of sertaconazol, ciclopiroxolamin and terbinafin were prepared as in Example 1, wherein the respective test concentrations were obtained by diluting these solutions in ultrapure water (WFI; Fresenius Kabi) instead of SGB (Merck). Full skin models were produced as previously described [Reddersen K, Wiegand C, Elsner P, Hipler UC. Three-dimensional human skin model infected with Staphylococcus aureus as a tool for evaluation of bioactivity and biocompatibility of antiseptics. Int J Antimicrob Agents. 2019; 54(3):283-291; Wiegand C, Fink S, Beier O, Horn K, Pfuch A, Schimanski A, Grünler B, Hipler UC, Elsner P. Dose- and Time-Dependent Cellular Effects of Cold Atmospheric Pressure Plasma Evaluated in 3D Skin Models. Skin Pharmacol Physiol. 2016;29(5):257-265].Particularly, normal human dermal fibroblasts (NHDF; Lot 1060702.1, Promocell) and normal human epidermal keratinocytes (NHEK; Lot 9100102, Promocell) were used. Fibroblasts were cultivated in Dulbecco's modified eagle medium (DMEM; Lot MC09049P, Amimed), with 2% foetal calf serum (Lot P160509; PAN), 5 ng/mL hFGF (Lot 0329586; novoprotein) and 5 µg/ml Insulin (Lot H07443P, AMIMED) at 37°C and a 5% CO2 atmosphere. Keratinocytes were cultivated in keratinocyte medium (KBM, Lot 446M063, Promocell) at 37°C and a 5% CO2 atmosphere. The cultivation was performed over 7 days in 75 cm^2 cell culture flasks (Greiner Bio-One). The cells were subsequently detached with Trypsin-EDTA (Lot 2091326; Gibco) and dissolved in the respective medium. For producing the dermis equivalent, fibroblasts were cultivated in 12-well inserts (Greiner bio-one) with DMEM (Lot MC09049P, Amimed) + 10% foetal calf serum (Lot P160509, PAN) + 1% Gentamycin (Lot 2027100, Gibco) + 150 µg/ml ascorbic acid (Lot BCBS1081V, Sigma) for 3 weeks at […] and 5 % CO2. The medium was changed all 2-3 days. Before seeding the keratinocytes for producing the […], the medium surrounding the insert was completely removed and the dermis upper layer was coated with fibronectin (50 µg/mL; Lot 435P078, Promocell). After 30 min of incubation of the dermis equivalent with fibronectin, the seeding of the keratinocytes was performed with 2 × 10^5 cells / insert in KBM (Lot 446M063, Promocell) + 5% FKS (Lot P160509, PAN) + 1% Gentamycin (Lot 2027100, Gibco). Subsequently, the skin models were incubated for 45 min in the incubator before the models were flooded with KBM + 5% FKS + 1% Gentamycin. The skin models were cultivated for 7 days by submersion in the medium with decreasing foetal calf serum concentration (5 %, 2 %, 0 %). The medium was changed all 2-3 days. After the cultivation by submersion, the skin models were further cultivated for 12 days at the air-medium interface (airlift cultivation). […]

secretion of LDH	Compound	effect on the cell viability of the full skin models	cell viability [%]
no significant secretion	Cc1cc(C2CCCCC2)n(O)c(=O)c1 [Ciclopiroxolamin, ciclopiroxolamin]	did not have a negative effect	≥ 70
no significant secretion	Clc1ccc(C(Cn2ccnc2)OCc2csc3c(Cl)cccc23)c(Cl)c1 (stereo not drawn) [Sertaconazol, sertaconazol]	did not have a negative effect	≥ 70
no significant secretion	CN(C/C=C/C#CC(C)(C)C)Cc1cccc2ccccc12 [Terbinafin, terbinafin]	did not have a negative effect	≥ 70
